Source: patent US20240246954A1, “COMPOSITIONS AND METHODS FOR INHIBITING KRAS” (TheRas, Inc., priority 2021, published 2024)

Key:
[1] = molecular target: T1, Avi-KRAS G12D/Q25A (1-169) GppNHp/3×FLAG-PI3KCA (157-299) (Homo sapiens, UniProt P01116, G12D/Q25A); test: HTRF PI3KCA-KRAS G12D/Q25A-GppNHp disruption assay; format: biochemical; conditions: 1 h incubation
T1 construct: Avi-KRAS G12D/Q25A (1-169) GppNHp
Procedure, shortened: (§1)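 Compounds titrated from 100 μM in a 10-point series, incubated with protein mix 1 h at room temperature, then HTRF reagents a further 1 h. Time-resolved fluorescence read (excitation 320 nm, emission 615 nm); activity expressed as percentage of DMSO control.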

[2] = molecular target: GDP KRAS G12D (Homo sapiens, UniProt P01116, G12D); test: SPR binding affinity, GDP KRAS G12D; conditions: GDP-bound KRAS G12D
GDP KRAS G12D, sequence (P01116 1-188 isoform P01116-2 G12D): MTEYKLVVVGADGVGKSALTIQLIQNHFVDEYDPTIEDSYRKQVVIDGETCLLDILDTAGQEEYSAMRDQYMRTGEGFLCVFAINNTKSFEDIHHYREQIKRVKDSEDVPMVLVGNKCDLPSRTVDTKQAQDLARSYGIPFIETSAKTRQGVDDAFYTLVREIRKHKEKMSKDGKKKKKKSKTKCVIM

[3] = molecular target: GppNHp KRAS G12D (Homo sapiens, UniProt P01116, G12D); test: SPR binding affinity, GppNHp KRAS G12D; conditions: GppNHp-bound KRAS G12D
GppNHp KRAS G12D, sequence (P01116 1-188 isoform P01116-2 G12D): as above

[4] = molecular target: T2, Avi-KRAS G12D (1-169) GppNHp/RAF1 RBD-3×FLAG (52-151) (Homo sapiens, UniProt P01116, G12D); test: HTRF Raf1-KRAS G12D-GppNHp disruption assay; format: biochemical; conditions: 1 h incubation
T2 construct: Avi-KRAS G12D (1-169) GppNHp
T2 sequence (P01116 1-169 isoform P01116-2 G12D limits assumed): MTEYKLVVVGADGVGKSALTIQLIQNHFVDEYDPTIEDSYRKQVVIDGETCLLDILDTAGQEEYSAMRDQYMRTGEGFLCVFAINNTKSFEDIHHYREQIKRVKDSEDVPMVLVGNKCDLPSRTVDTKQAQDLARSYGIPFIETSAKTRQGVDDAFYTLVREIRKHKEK
Procedure, shortened: as §1

[5] = test system: pERK in GP2d cells (KRAS G12D); test: Cell-based pERK HTRF assay; conditions: GP2d, 1 h, 60 min incubation
Procedure, shortened: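 GP2d cells (DMEM, 10% FBS) treated 60 min with compounds in a 9-point half-log series from 1 μM top concentration, 0.25% DMSO. Lysates read for pERK by HTRF (d2/Eu cryptate antibodies) after 4–24 h at room temperature; emission at 615 nm.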

T1 sequence (P01116 1-169 isoform P01116-2 G12D/Q25A limits assumed): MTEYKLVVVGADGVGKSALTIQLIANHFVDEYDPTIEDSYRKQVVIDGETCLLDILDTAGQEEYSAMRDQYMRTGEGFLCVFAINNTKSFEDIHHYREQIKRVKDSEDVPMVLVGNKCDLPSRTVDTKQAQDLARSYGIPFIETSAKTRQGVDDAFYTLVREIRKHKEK

SMILES	IC50 [1] [nM]	Kd [2] [nM]	Kd [3] [nM]	IC50 [4] [nM]	IC50 [5] [nM]
Nc1nc2c(-c3c(C(F)(F)F)cc4c(N[C@@H]5CCNC5)nc(OC[C@@]56CCCN5C[C@H](F)C6)nc4c3F)ccc(F)c2s1 (atropisomer, axis not shown) [Compound 249]	10000 to 30000	≤ 100	1000 to 10000	1000 to 10000	–
Nc1nc2c(-c3c(C(F)(F)F)cc4c(N5CC6CCC(C5)N6)nc(OC[C@@]56CCCN5C[C@H](F)C6)nc4c3F)ccc(F)c2s1 (single isomer, unassigned) [Compound 246]	1000 to 10000	≤ 100	1000 to 10000	1000 to 10000	–
Nc1nc2c(-c3c(Cl)cc4c(N5CCNCC5)ncnc4c3F)ccc(F)c2s1 [Compound 1, 4-(6-chloro-8-fluoro-4-(piperazin-1-yl)quinazolin-7-yl)-7-fluorobenzo[d]thiazol-2-amine]	10000 to 30000	1000 to 10000	10000 to 30000	10000 to 30000	–
NCCNc1ncnc2c(F)c(-c3ccc(F)c4sc(N)nc34)c(Cl)cc12 [Compound 5, N^1-(7-(2-amino-7-fluorobenzo[d]thiazol-4-yl)-6-chloro-8-fluoroquinazolin-4-yl)ethane-1,2-diamine]	10000 to 30000	1000 to 10000	10000 to 30000	10000 to 30000	–
N#CC[C@H]1CN(c2ncnc3c(F)c(-c4ccc(F)c5sc(N)nc45)c(Cl)cc23)CCN1C(=O)CN [Compound 29]	10000 to 30000	1000 to 10000	10000 to 30000	10000 to 30000	–
CN1CCC[C@H]1COc1nc(N2CCN(C(=O)CN)[C@@H](CC#N)C2)c2cc(Cl)c(-c3ccc(F)c4sc(N)nc34)c(O)c2n1 [Compound 59]	10000 to 30000	–	1000 to 10000	10000 to 30000	–
CO[C@@H]1CN(C)C[C@H]1Oc1nc(NCCN)c2cc(Cl)c(-c3ccc(F)c4sc(N)nc34)c(F)c2n1 [Compound 60]	10000 to 30000	–	10000 to 30000	10000 to 30000	–
CO[C@@H]1C[C@@H](COc2nc(NCCN)c3cc(Cl)c(-c4ccc(F)c5sc(N)nc45)c(F)c3n2)N(C)C1 [Compound 61]	1000 to 10000	–	1000 to 10000	1000 to 10000	–
Cc1ccc2[nH]ncc2c1-c1c(Cl)cc2c(NCCN)nc(OC[C@@H]3CCCN3C)nc2c1F [Compound 62]	10000 to 30000	–	10000 to 30000	10000 to 30000	–
CO[C@@H]1CN(C)C[C@H]1Oc1nc(N2CCNCC2)c2cc(Cl)c(-c3ccc(F)c4sc(N)nc34)c(F)c2n1 [Compound 63]	10000 to 30000	–	10000 to 30000	10000 to 30000	–
CN1CCC[C@H]1COc1nc(NCCN)c2cc(Cl)c(-c3cccc4cc(O)ccc34)c(F)c2n1 [Compound 74]	10000 to 30000	–	10000 to 30000	10000 to 30000	–
NCCNc1nc(OCC23CCCN2CCC3)nc2c(F)c(-c3ccc(F)c4sc(N)nc34)c(Cl)cc12 [Compound 77]	1000 to 10000	–	100 to 1000	1000 to 10000	–
Nc1nc2c(-c3c(Cl)cc4c(NC5CNC5)nc(OCC56CCCN5CCC6)nc4c3F)ccc(F)c2s1 [Compound 89]	1000 to 10000	–	100 to 1000	1000 to 10000	–
CN(c1nc(OC[C@@]23CCCN2C[C@H](F)C3)nc2c(F)c(-c3ccc(F)c4sc(N)c(C#N)c34)c(F)cc12)[C@H]1CCNC1 [Compound 361, 2-amino-4-(6,8-difluoro-2-(((2R,7aS)-2-fluorotetrahydro-1H-pyrrolizin-7a(5H)-yl)methoxy)-4-(methyl((S)-pyrrolidin-3-yl)amino)quinazolin-7-yl)-7-fluorobenzo[b]thiophene-3-carbonitrile]	100 to 1000	–	–	100 to 1000	100 to 1000
N#Cc1c(N)sc2c(F)ccc(-c3c(C(F)(F)F)cc4c(N5C[C@H]6CC[C@@H](C5)N6)nc(N5CC(N6CC7(CC7)C6)C5)nc4c3F)c12 [Compound 363, 4-(2-(3-(5-azaspiro[2.3]hexan-5-yl)azetidin-1-yl)-4-((1R,5S)-3,8-diazabicyclo[3.2.1]octan-3-yl)-8-fluoro-6-(trifluoromethyl)quinazolin-7-yl)-2-amino-7-fluorobenzo[b]thiophene-3-carbonitrile]	100 to 1000	–	–	100 to 1000	≤ 100
CN(c1nc(OC[C@@]23CCCN2C[C@H](F)C3)nc2c(F)c(-c3ccc(F)c4sc(N)c(C#N)c34)c(C(F)(F)F)cc12)[C@@H]1CCN[C@@H]1CF [Compound 364]	100 to 1000	–	–	≤ 100	≤ 100
CN(c1nc(N2CC(N3CC4(CC4)C3)C2)nc2c(F)c(-c3ccc(F)c4sc(N)c(C#N)c34)c(C(F)(F)F)cc12)[C@@H]1CCNC1 [Compound 365]	100 to 1000	–	–	100 to 1000	100 to 1000
Nc1nc2c(-c3c(C(F)F)cc4c(N5C[C@H]6CC[C@@H](C5)N6)nc(OC[C@@]56CCCN5C[C@H](F)C6)nc4c3Cl)ccc(F)c2s1 [Compound 368, 4-(4-((1R,5S)-3,8-diazabicyclo[3.2.1]octan-3-yl)-8-chloro-6-(difluoromethyl)-2-(((2R,7aS)-2-fluorotetrahydro-1H-pyrrolizin-7a(5H)-yl)methoxy)quinazolin-7-yl)-7-fluorobenzo[d]thiazol-2-amine]	100 to 1000	–	–	100 to 1000	≤ 100
Nc1nc2c(-c3c(C(F)F)cc4c(N5C[C@H]6CC[C@@H](C5)N6)nc(OC[C@@]56CCCN5C[C@H](F)C6)nc4c3F)ccc(F)c2s1 [Compound 370, 4-(4-((1R,5S)-3,8-diazabicyclo[3.2.1]octan-3-yl)-6-(difluoromethyl)-8-fluoro-2-(((2R,7aS)-2-fluorotetrahydro-1H-pyrrolizin-7a(5H)-yl)methoxy)quinazolin-7-yl)-7-fluorobenzo[d]thiazol-2-amine]	100 to 1000	–	–	100 to 1000	≤ 100
N#Cc1c(-c2ccc(F)c3sc(N)c(C#N)c23)c(Cl)cc2c(N3CC4CCC(C3)N4)nc(OC[C@@]34CCCN3C[C@H](F)C4)nc12 [Compound 371]	100 to 1000	–	–	100 to 1000	≤ 100
N#Cc1cc2c(N3CC4CCC(C3)N4)nc(OC[C@@]34CCCN3C[C@H](F)C4)nc2c(Cl)c1-c1ccc(F)c2sc(N)c(C#N)c12 [Compound 372]	1000 to 10000	–	–	1000 to 10000	100 to 1000
Nc1nc2c(-c3cc4nc(OC[C@@]56CCCN5C[C@H](F)C6)nc(O[C@H]5CNC[C@@H]5F)c4cc3C(F)(F)F)ccc(F)c2s1 [Compound 374]	10000 to 30000	–	–	1000 to 10000	> 1000
N#Cc1c(N)sc2c(F)ccc(-c3c(C(F)(F)F)cc4c(N5CC[C@@H]6CNCC[C@@H]65)nc(OC[C@@]56CCCN5C[C@H](F)C6)nc4c3F)c12 [Compound 376]	100 to 1000	–	–	100 to 1000	≤ 100
CN(c1nc(OC[C@@]23CCCN2C[C@H](F)C3)nc2c(F)c(-c3ccc(F)c4sc(N)c(C#N)c34)c(F)cc12)[C@@H]1CCNC1 [Compound 377]	100 to 1000	–	–	100 to 1000	100 to 1000
C[C@@H]1CN(c2nc(OC[C@@]34CCCN3C[C@H](F)C4)nc3c(F)c(-c4ccc(F)c5sc(N)c(C#N)c45)c(C(F)(F)F)cc23)[C@@H](C)CN1 [Compound 378]	100 to 1000	–	–	≤ 100	≤ 100
CN(c1nc(OC[C@@]23CCCN2C[C@H](F)C3)nc2c(F)c(-c3ccc(F)c4sc(N)c(C#N)c34)c(Cl)cc12)[C@@H]1CCNC1 [Compound 379]	100 to 1000	–	–	100 to 1000	≤ 100
